# According to patent publication US20160256510A1, “PALIURUS RAMOSISSIMUS (LOUR.) POIR EXTRACT AND PREPARATION METHOD AND USES THEREOF” (priority 2013, published 2016):
# Marks after values point to notes of the source that are not given here.
# Tests used:
# S180 = assay: Mice bearing S180, tumor weight and inhibition rate; format: in vivo, Kunming mice
# Experimental: (§1) Choose mice which are in good health conditions and received S180 tumor injection 8 days ago, disinfect abdominal skin, draw ascites, mix with normal saline as ratio of 1:4 (ascites volume:normal saline volume) to make suspension. […] In all groups, subcutaneously inject 0.2 ml of the aforementioned suspension at the right anterior lobe. 2 hours after injection, mice in control group and drug groups receive test substance or suspension via intragastric administration once a day for 14 consecutive days. In positive control group, CTX is administered intraperitoneally once every other day for a total of 7 times.
# as §1, with “intragastric or intravenous” for “intragastric”
# transplanted tumor S 180 = settings: control group (positive control cyclophosphamide 85 mg/kg daily)
# Experimental: Take Kunming mice, subcutaneously inject 0.2 ml of S180 suspension (about 1×10^6 tumor cells) in a routine way at the right anterior lobe. 24 hours after injection, mice are randomly grouped and numbered. There are 10 mice in the control groups, and 10 mice each in test groups of high dose, middle dose, and low dose. Mice in each group receive drugs via intragastric administration once a day for a total of 14 times. In positive control group, cyclophosphamide (85 mg/kg) is given daily, and the dose, frequency, time are identical with the test groups.
# pulmonary fibrosis = assay: Bleomycin-induced pulmonary fibrosis in rats; format: in vivo, SD rats; settings: lung, 30 days
# Experimental: Take 60 SD rats (200-240 g, male), randomly divide into sham operation control group (0.5% mucilage tragacanth), model control group (0.5% mucilage tragacanth), positive control group (dexamethasone, 1 mg/kg), Paliurus ramosissimus (Lour) Poir. extract (prepared according to Embodiment 1) low-dose group (0.4 g/kg), Paliurus ramosissimus (Lour) Poir. extract middle-dose group (0.8 g/kg), and Paliurus ramosissimus (Lour) Poir. extract high-dose group (1.6 g/kg) with stratification of body weight. All animals receive trachea separation under anesthesia by intraperitoneal injection of 10% chloral hydrate (350 mg/kg). Except the sham operation control group, rats in other groups receive injection of 5 mg/kg of bleomycin in 0.4 ml of normal saline solution, while rats in sham operation control group receive normal saline solution only. From the next day after surgery, test substance is given daily for 30 consecutive days. Sacrifice the animals by cervical dislocation, and take the lungs; some organs are homogenized for hydroxyproline content determination, and some are for pathological examination.
# Take 60 SD rats (200-240 g, male), randomly divide into sham operation control group, model control group, positive control group (dexamethasone, 1 mg/kg), Paliurus ramosissimus (Lour) Poir. extract group (prepared according to Embodiment 1, 0.8 g/kg. op), Ligustrazine (40 mg/kg, ip)and drug combination group (Paliurus ramosissimus (Lour) Poir. Extract 0.8 g/kg, op; Ligustrazine injection40 mg/kg, ip) with stratification of body weight. All animals receive trachea separation under anesthesia by intraperitoneal injection of 10% chloral hydrate (350 mg/kg). Except the sham operation control group, rats in other groups receive injection of 5 mg/kg of bleomycin in 0.4 ml of normal saline solution, while rats in sham operation control group receive normal saline solution only. The next day after the surgery, give the test substance via intragastric administration or injection administration, test substance is given daily for 30 consecutive days. […]
# [1] = test system: experimental hepatic fibrosis; assay: Carbon tetrachloride-induced liver fibrosis in rats; format: in vivo, SD rats; settings: 3 months
# Experimental: Take 60 SD rats (200-240 g, male), randomly divide into blank control group (0.5% mucilage tragacanth), model control group (0.5% mucilage tragacanth), positive control group (dexamethasone, 1 mg/kg), Paliurus ramosissimus (Lour) Poir. extract (prepared according to Embodiment 1) low-dose group (0.4 g/kg), Paliurus ramosissimus (Lour) Poir. extract middle-dose group (0.8 g/kg), and Paliurus ramosissimus (Lour) Poir. extract high-dose group (1.6 g/kg) with stratification of body weight. Except the blank control group, rats in other groups receive subcutaneous injection of 1 ml/kg of 40% carbon tetrachloride in vegetable oil solution, 2 times a week for 3 consecutive months, while receiving high-fat diet and 5% ethanol aqueous solution. Test substance is given via intragastric administration once daily for 3 consecutive months. On the next day after drug administration, draw abdominal aortic blood, separate plasma, determine the levels of alanine aminotransferase (ALT), III procollagen (PC-III), hyaluronic acid (HA) and laminin (LH); the sacrifice the animals, and take the liver for pathological examination.
# Take 60 SD rats (200-240 g, male), randomly divide into blank control group, model control group, positive control group (dexamethasone, 1 mg/kg), Paliurus ramosissimus (Lour) Poir. extract group (prepared according to Embodiment 1, 0.8 g/kg), Polyene phosphatidylcholine group, drug combination group (Paliurus ramosissimus (Lour.) Poir. Extract0.8 g/kg+Polyene phosphatidylcholine1 ml/kg) with stratification of body weight. Except the blank control group, rats in other groups receive subcutaneous injection of 1 ml/kg of 40% carbon tetrachloride in vegetable oil solution, 2 times a week for 3 consecutive months, while receiving high-fat diet and 5% ethanol aqueous solution. Test substance is given via intragastric administration once daily for 3 consecutive months. On the next day after drug administration, draw abdominal aortic blood, separate plasma, determine the levels of alanine aminotransferase (ALT), III procollagen (PC-III), hyaluronic acid (HA) and laminin (LH); the sacrifice the animals, and take the liver for pathological examination.
# TNBS induced colitis = assay: TNBS induced experimental colitis in rats; format: in vivo; settings: 2 mg/kg
# Experimental: After the animals are fasted for 24 h, perform anesthesia with sodium pentobarbital. Except the sham operation group, perform coloclysis with TNBS and 40% ethanol, and replicate experimental colitis model; 6 h after model construction, administer test substance. At the day 5 of administration, draw tail vein blood and count leukocyte. At day 6, perform urethane anesthesia, draw abdominal aortic blood and sacrifice the animals by cervical dislocation. Cut 9 cm colon from the anus, in an ice bath, cut intestine along the mesenteric edge, wash out the contents, measure the ulcer area, calculate the percentage of ulcer area; weigh the colon, scrap colonic mucosa, and determine tumor necrosis factor (TNF-α) concentration with ELISA method.
# Ehrlich ascites tumor = assay: Mice bearing Ehrlich ascites tumor, survival time and ascites weight; format: in vivo, Kunming mice; settings: 40 mg/kg intraperitoneally every other day, 7 times
# Experimental: Choose mice which are in good health conditions and received Ehrlich ascites tumor injection 8 days ago, disinfect abdominal skin, draw ascites, mix with normal saline to […] for future use. […] In all groups, subcutaneously inject 0.2 ml of the aforementioned suspension at the right anterior lobe. 2 hours after injection, mice in control group and drug groups receive test substance or suspension via intragastric administration once a day, administer continuously until the animal is dying. In positive control group, CTX is administered intraperitoneally once every other day for a total of 7 times. When the animal is dying, sacrifice it by cervical dislocation; the day of dying is calculated as survival time; after death, weigh, exhaust ascites, weigh again, and the difference is the weight of ascites.
# peritoneal macrophages = assay: Peritoneal macrophage phagocytosis of normal mice; format: in vivo, KM mice; settings: inhibition effect positive control 0.1 g/kg, one subcutaneous injection at day 13
# Experimental: Except that the mice in inhibition effect positive control group receive one dose of subcutaneous injection at day 13, mice in other groups receive test substance or suspension via intragastric administration once a day for 14 consecutive days. At day 13 and 14, apply intraperitoneal injection of 6% starch solution respectively. 1 h after the last administration at day 14, apply intraperitoneal injection of 1 ml of 5% chicken erythrocytes in saline suspension; 30 min later, sacrifice the mice by cervical dislocation, apply intraperitoneal injection of 2 ml saline, and gently massage the abdomen. 1 min later, cut open abdomen, draw 1 ml of peritoneal washings, evenly drop on two slides, place in a wet box, and incubate at 37° C. for 30 min. Rinse in saline, dry, fix with 1:1 acetone-methanol solution, stain with 4% (v/v) Giemsa-PBS for 3 min, rinse with distilled water and dry, perform microscopic examination, and calculate the percentage of phagocytosis.
# [2] = test system: pylorus ligation induced gastric ulcer; assay: Pylorus ligation induced experimental gastric ulcer in rats; format: in vivo; settings: 60 mg/kg intragastric, 3 days
# Description: (§2) In all groups, mice receive test substance via intragastric administration once a day for 3 consecutive days.
# as §2
# [3] = Table 8, 1 ml/kg once a day, 14 days
# [4] = Table 8, 5 mg/kg once a day, 14 days
# [5] = Table 11, dexamethasone 1 mg/kg
# [6] = Table 6, 40 mg/kg intraperitoneally every other day, 7 times
# [7] = Table 8, 40 mg/kg intraperitoneally every other day, 7 times
# [8] = Table 11, polyene phosphatidylcholine group (1 ml/kg in the combination)
compound,measurement,setting,value
"CC(=O)O[C@H]1[C@H]2O[C@]23[C@@H]2CC[C@]4(O)C[C@@H](O)CC[C@]4(C)[C@H]2CC[C@]3(C)[C@H]1c1ccc(=O)oc1 [Cinobufotalin, cinobufotalin]",Tumor inhibition rate (%),S180; [3],43.8%
same,Tumor weight,S180; [3],0.73 ± 0.42 g
"O=P1(N(CCCl)CCCl)NCCCO1 (stereo not shown) [Control group, cyclophosphamide]",Tumor inhibition rate,transplanted tumor S 180,38.45 ± 3.62%
Cc1nc(C)c(C)nc1C [Ligustrazine],Hydroxyproline content (mg/gpro),"pulmonary fibrosis; Table 12, 40 mg/kg ip daily",14.6 ± 5.7 mg/gpro
"CC(=O)O[C@H]1C(=O)[C@@]2(C)[C@H]([C@H](OC(=O)c3ccccc3)[C@]3(O)C[C@H](OC(=O)[C@H](O)[C@@H](NC(=O)c4ccccc4)c4ccccc4)C(C)=C1C3(C)C)[C@]1(OC(C)=O)CO[C@@H]1C[C@@H]2O [Paclitaxel, paclitaxel]",Tumor inhibition rate (%),S180; [4],34.6%
same,Tumor weight,S180; [4],0.85 ± 0.38 g
"C[C@@H]1C[C@H]2[C@@H]3CCC4=CC(=O)C=C[C@]4(C)[C@@]3(F)[C@@H](O)C[C@]2(C)[C@@]1(O)C(=O)CO [Positive Control, dexamethasone]",ALT (U/L),"[1]; Table 9, dexamethasone 1 mg/kg",456 ± 98 U/L
same,HA,"[1]; Table 9, dexamethasone 1 mg/kg",280 ± 54 µg/L
same,LN,"[1]; Table 9, dexamethasone 1 mg/kg",62 ± 20 µg/L
same,PC-III,"[1]; Table 9, dexamethasone 1 mg/kg",20.8 ± 3.1 µg/L
same,ALT (U/L),[1]; [5],478 ± 90 U/L
same,HA,[1]; [5],285 ± 57 µg/L
same,LN,[1]; [5],65 ± 23 µg/L
same,PC-III,[1]; [5],20.6 ± 3.8 µg/L
same,Hydroxyproline content (mg/gpro),"pulmonary fibrosis; Table 10, dexamethasone 1 mg/kg daily",13.6 ± 3.3 mg/gpro
same,Hydroxyproline content (mg/gpro),"pulmonary fibrosis; Table 12, dexamethasone 1 mg/kg daily",13.4 ± 3.7 mg/gpro
same,Ratio of ulcer area (%),"TNBS induced colitis; colon, day 6",28.6 ± 10.5 %
same,TNF-α (ng/gpro),"TNBS induced colitis; colonic mucosa, ELISA",73.2 ± 19.6 ng/gpro
same,Leukocyte count (10^9/L),"TNBS induced colitis; tail vein blood, day 5",8.4 ± 0.9** 10^9/L
"O=P1(N(CCCl)CCCl)NCCCO1 (stereo not shown) [ctx, cyclophosphamide]",Tumor inhibition rate (%),S180; [6],70.8%
same,Tumor weight,S180; [6],0.35 ± 0.58 g
same,Tumor inhibition rate (%),S180; [7],63.1%
same,Tumor weight,S180; [7],0.48 ± 0.41 g
same,Survival time,Ehrlich ascites tumor,17.2 ± 2.3 days
same,Weight of ascites,Ehrlich ascites tumor,15.9 ± 1.5
same,Percentage of phagocytosis,peritoneal macrophages,0.12 ± 0.03
CNC(=C[N+](=O)[O-])NCCSCc1ccc(CN(C)C)o1 [ranitidine],Ulcer index,[2]; Table 19,1.5 ± 0.4
same,Inhibition rate (%),"[2]; Table 19, ulcer",68.1%
same,Ulcer index,[2]; Table 22,1.8 ± 0.6
same,Ulcer inhibition rate (%),[2]; Table 22,60.0%
Polyene phosphatidylcholine,ALT (U/L),[1]; [8],443 ± 130 U/L
same,HA,[1]; [8],284 ± 78 µg/L
same,LN,[1]; [8],63 ± 18 µg/L
same,PC-III,[1]; [8],27.0 ± 4.8 µg/L
